Consider six molecules from patent US11731941B2 (Exelixis, Inc., priority 2017, dated 2023).

Usually aqueous solubility stands for how much of the substance goes into solution per volume. Read a high aqueous solubility as much dissolved substance.

Converted amounts (≈) assume the structure as drawn. Where a name gives a salt, the structure may show the parent alone.

Data set [1] can be described thus: aqueous equilibrium solubility by HPLC. The format is physicochemical. The conditions noted are these: for pH of the solubility solution: checked with pH paper; for solubility compared to malate salt of Compound 1: comparison in words; for aqueous solubility: distilled water, ambient temperature (about 25° C.), 24 hours, HPLC. On the procedure:
The HPLC method used to determine aqueous equilibrium solubility is outlined in Table 32.
HPLC solubility determination about 5 mg of each salt was added to a vial with distilled water (1 mL). These were stirred at ambient temperature (about 25° C.) for 24 hours. The solution was isolated by filtration through a 0.2 μm PTFE filter and was analyzed by HPLC for concentration. The pH of the solutions was checked with pH paper.

Data set [2] can be described thus: Dynamic Vapor Sorption (DVS) hygroscopicity. The conditions noted are these: for XRPD analysis of the post DVS sample: physical form after DVS cycle; for hygroscopicity, European Pharmacopoeia classification: weight increase at 80% RH (25° C.). The data set is classed as physicochemical. Here is the method:
As used herein “the European Pharmacopoeia classification” is a system whereby a chemical Compound 1s classified based on hygroscopicity. The classification is determined according to Table 2: [table] Dynamic Vapor Sorption (DVS) was performed using a Hiden Analytical Instruments IGAsorp Vapor Sorption Balance. Approximately 30 mg of sample was placed into a wire mesh vapor sorption balance pan, loaded into the IGAsorp vapor sorption balance, and held at 25° C.±0.1° C. The sample was subjected to a step profile from 0 to 90% RH at 10% increments, followed by desorption from […] to 0% RH at 10% increments. The equilibrium criterion was set to 99.0% step completion within a minimum of 60 minutes and a maximum of 5 hours for each increment. The weight change during the sorption cycle was monitored, allowing for the hygroscopic nature of the sample to be determined. The data collection interval was in seconds.

Data set [3] can be described thus: initial development experiments (BCS classification, solubility, permeability). The data set is classed as physicochemical. The conditions noted are these: free base.
Data set [4] is described as follows: humidity stress at 40° C./75% relative humidity. To be noted: about 7 days. The format is physicochemical.
For data set [5] the following is noted: both forms of Compound 1 (S)-malate; comparison value, source not stated; cited from earlier work.
The mark [6] stands for this setting: listed as Compound 1 isethionate monohydrate.

For `COc1cc2nccc(Oc3ccc(NC(=O)C4(C(=O)Nc5ccc(F)cc5)CC4)cc3)c2cc1OC` [Form 27, N-{4-[(6,7-dimethoxyquinolin-4-yl)oxy]phenyl}-N′-(4-fluorophenyl) cyclopropane-1,1-dicarboxamide], in data set [1] (setting [6]), the “pH of the solubility solution” value was “about 2”, the “solubility compared to malate salt of Compound 1” value is “much higher solubility” and the aqueous solubility came to 0.195 mg/mL (≈ 389 µM). For the same molecule, the “plateau of water content between 10-50% RH” value in data set [2] (DVS isotherm, 1 mol. eq.) is “about 3.0±0.1 % w/w”. Also, in data set [2] (DVS, 25° C.), the “total weight gain between 20% RH and 80% RH” value was “about 2.4 % w/w”. In addition, the “XRPD analysis of the post DVS sample” value in data set [2] is listed as “remained unchanged”. The “hygroscopicity, European Pharmacopoeia classification” value in data set [2] (setting [6]) is listed as “hygroscopic”.
`COc1cc2nccc(Oc3ccc(NC(=O)C4(C(=O)Nc5ccc(F)cc5)CC4)cc3)c2cc1OC` [Compound 1, N-{4-[(6,7-dimethoxyquinolin-4-yl)oxy]phenyl}-N′-(4-fluorophenyl) cyclopropane-1,1-dicarboxamide]: in data set [3], the BCS class entry is reported as “BCS class II”. The “solubility” value in data set [3] (in water) is recorded as “low solubility”. Besides, in data set [4], the “% Weight Change” value is −0.94% and the “XRPD after humidity stressing” value was “Form 1”.
Consider `COc1cc2nccc(Oc3ccc(NC(=O)C4(C(=O)Nc5ccc(F)cc5)CC4)cc3)c2cc1OC` [Form 20, N-{4-[(6,7-dimethoxyquinolin-4-yl)oxy]phenyl}-N′-(4-fluorophenyl) cyclopropane-1,1-dicarboxamide], for which, in data set [1] (listed as Compound 1 glutarate), the “pH of the solubility solution” value is recorded as “about 3” and the aqueous solubility is given as 0.016 mg/mL (≈ 31.9 µM). Further, in data set [2] (DVS, 25° C., listed as Compound 1 glutarate), the “total weight gain between 0% RH and 80% RH” value amounted to 0.08 % w/w. Besides, the “hygroscopicity, European Pharmacopoeia classification” value in data set [2] (listed as Compound 1 glutarate) is “non-hygroscopic”.
For the molecule `COc1cc2nccc(Oc3ccc(NC(=O)C4(C(=O)Nc5ccc(F)cc5)CC4)cc3)c2cc1OC` [Form 3, N-{4-[(6,7-dimethoxyquinolin-4-yl)oxy]phenyl}-N′-(4-fluorophenyl) cyclopropane-1,1-dicarboxamide], in data set [4], the “XRPD after humidity stressing” value is recorded as “no form change” and the “weight loss after humidity stressing” value is reported as 43.17%.
Take `COc1cc2nccc(Oc3ccc(NC(=O)C4(C(=O)Nc5ccc(F)cc5)CC4)cc3)c2cc1OC` [Compound 1 (S)-malate, S-malate salt of N-{4-[(6,7-dimethoxyquinolin-4-yl)oxy]phenyl}-N′-(4-fluorophenyl) cyclopropane-1,1-dicarboxamide]: the “hygroscopicity weight gain of comparator” value in data set [5] was “about 0.4 % w/w”.
Consider `COc1cc2nccc(Oc3ccc(NC(=O)C4(C(=O)Nc5ccc(F)cc5)CC4)cc3)c2cc1OC` [Form 14, N-{4-[(6,7-dimethoxyquinolin-4-yl)oxy]phenyl}-N′-(4-fluorophenyl) cyclopropane-1,1-dicarboxamide], for which, in data set [1] (listed as Compound 1 pyruvate), the “pH of the solubility solution” value is “about 3”, the “solubility compared to malate salt of Compound 1” value was “higher solubility” and the aqueous solubility entry was “about 0.133 mg/mL”. Further, the “total weight gain between 0% RH and 80% RH” value in data set [2] (DVS, 25° C., listed as Compound 1 pyruvate) is listed as 0.10 % w/w. In data set [2], the “XRPD analysis of the post DVS sample” value was “remained unchanged”. For the same molecule, the “hygroscopicity, European Pharmacopoeia classification” value in data set [2] (listed as Compound 1 pyruvate) is reported as “non-hygroscopic”.
